From patent publication US8552013B2, “Heterocyclic compounds based on N6-substituted adenine, methods of their preparation, their use for preparation of drugs, cosmetic preparations and growth regulators, pharmaceutical preparations, cosmetic preparations and growth regulators containing these compounds” (USTAV Experimentalni Botaniky Akademie Ved Ceske Republiky, priority 2001, dated 2013)

Experiments:
Human lymphocytes = experiment: Immunosuppressive activity, 3H-thymidine incorporation in concanavalin A activated lymphocytes; type: cell-based; settings: Lymphocyte, 72 hours, [3H]-TdR, read-out: Human lymphocytes ED50
Excerpt: One of the most important parameters of specific cellular immunity is proliferative response of lymphocytes to antigens or polyclonal mitogens. The majority of normal mammalian peripheral lymphocytes comprise resting cells. Antigens or nonspecific polyclonal mitogens have the capacity to activate lymphoid cells and this is accompanied by dramatic changes of intracellular metabolism (mitochondrial activity, protein synthesis, nucleic acids synthesis, formation of blastic cells and cellular proliferation). […] Variety of in vitro assays was developed to measure proliferative response of lymphocytes. The most commonly used is ^3H-thymidine incorporation method.
During cell proliferation, DNA has to be replicated before the cell is divided into two daughter cells. This close association between cell doublings and DNA synthesis is very attractive for assessing cell proliferation. If labelled DNA precursors are added to the cell culture, cells that are about to divide incorporate the labelled nucleotide into their DNA. Traditionally, those assays usually involve the use of radiolabelled nucleosides, particularly tritiated thymidine ([^3H]-TdR). The amount of [^3H]-TdR incorporated into the cellular DNA is quantified by liquid scintillation counting.
Human heparinized peripheral blood was obtained from healthy volunteers by cubital vein punction. The blood was diluted in PBS (1:3) and mononuclear cells were separated by centrifugation in Ficoll-Hypaque density gradient (Pharmacia, 1.077 g/ml) at 2200 rpm for 30 minutes. Following centrifugation, lymphocytes were washed in PBS and resuspended in cell culture medium (RMPI 1640, 2 mM glutamine, 100 U/ml penicillin, 100 μg/ml streptomycin, 10% fetal calf serum and sodium bicarbonate).
The cells were diluted at target density of 1,100,000 cells/ml were added by pipette (180 μl) into 96/well microtiter plates. Four-fold dilutions of the intended test concentration were added at time zero in 20 μl aliquots to the microtiter plate wells. Usually, test compound was evaluated at six 4-fold dilutions. In routine testing, the highest well concentration was 266.7 μM. All drug concentrations were examined in duplicates. All wells with exception of unstimulated controls were activated with 50 μl of concanavalin A (25 μg/ml). Incubations of cells with test compounds lasted for 72 hours at 37° C., in 5% CO2 atmosphere and 100% humidity. At the end of incubation period, the cells were assayed by using the [^3H]-TdR:
Cell cultures were incubated with 0.5 μCi (20 μl of stock solution 500 μCi/ml) per well for 6 hours at 37° C. and 5% CO2. The automated cell harvester was used to lyse cells in water and adsorb the DNA onto glass-fiber filters in the format of microtiter plate. The DNA incorporated [^3H]-TdR was retained on the filter while unincorporated material passes through. The filters were dried at room temperature overnight, sealed into a sample bag with 10-12 ml of scintillant. The amount of [^3H]-TdR present in each filter (in cpm) was determined by scintillation counting in a Betaplate liquid scintillation counter. The effective dose of immunosuppressant (ED) was calculated using the following equation: ED=(CCPMdrug exposed well/mean CCPMcontrol wells)×100%. The ED50 value, the drug concentration inhibiting proliferation of 50% of lymphocytes, was calculated from the obtained dose response curves.

[1] = tested on: human diploid fibroblasts (HCA cells); experiment: Senescence, beta-galactosidase staining of human diploid fibroblasts; type: cell-based; settings: for SENESCENT CELLS (%) HCA25: passage 25; for SENESCENT CELLS (%) HCA45: passage 45; for SENESCENT CELLS (%) HCA80: passage 80
Method: In this example, human diploid fibroblasts (HCA cells of various passage levels: passage 25—designated HCA25; passage 45—designated HCA45; passage 80—designated HCA80) were stained for β-galactosidase activity. The medium used for cell cultivation was removed, the cells were washed twice in […], and fixed in 2-3 ml of fixing solution comprised of a 2% formaldehyde and 0.2% glutaraldehyde in PBS. The cells were incubated at room temperature for 5 minutes, then washed twice with PBS. The cells were subsequently incubated at 37° C. (without CO2) for 1 to 16 hours in 2-3 ml of a solution comprising potassium ferricyanide (5 mM), potassium ferrocyanide (5 mM), MgCl2 (2 mM), X-gal (5-bromo-4-chloro-3-indolyl-β-D-galactopyranoside) (1 mg/ml), in citric/phosphate buffer, pH 6.0). […] In this experiment, senescent cells, but not other cells were stained blue due to the action of β-galactosidase on the substrate (FIG. 4).

[2] = tested on: Rosa hybrida 'Pailin' explants; experiment: Early shoot senescence of tissue cultured roses; type: in vivo; settings: 10 μM in medium
Method: Rosa hybrida ‘Pailin’ (a cut rose) was cultured in 350 ml vessels with a screw on polycarbonate lid. Each culture vessel contained 100 ml autoclaved medium (120° C., 20 min). The cultures were maintained at 23±2° C. under a 16 h photoperiod at 40 μM m^−2 s^−1 PAR. The basal medium (BMR) contained Murashige and Skoog (1962) macroelements, microelements and vitamins, 36.7 mg/l NaFeEDTA, 50 mg/l NaFeEDDHA, 100 mg/l […] myo-inositol, 30 g/l sucrose, 100 mg/l glycine, 50 mg/l calcium pantothenate, 100 mg/l L-glutamine and 7 g/l agar-agar. This medium was supplemented with 10 μM BA, mT and mMeOBAP. The last 2 cytokinins were filter sterilised and added after autoclaving the medium in the vessels. The control medium didn't contain any cytokinin. After a culture period of 6 weeks, scoring senescence symptoms was started.

[3] = tested on: Rosa hybrida (pot rose cultivar) explants; experiment: In vitro and post vitro shoot multiplication and rooting of rose; type: in vivo
Method: The aim of this experiment was to test whether the new compounds are of practical use in tissue culture practice. The multiplication rate was investigated and the post vitro effects on rooting were examined. Rosa hybrida (pot rose cultivar) was cultured in 350 ml vessels with a screw on polycarbonate lid. Each culture vessel contained 100 ml autoclaved medium (120° C., 20 min). The cultures were maintained at 23±2° C. under a 16 h photoperiod at 40 μM m^−2 s^−1 PAR. The basal medium (BMR) contained Murashige and Skoog (1962) macroelements, microelements and vitamins, 95 μM NaFeEDTA, 555 μM myo-inositol, 111 mM sucrose, 1.332 mM glycine, 684 μM L-glutamine and 7 g/l agar. This medium was supplemented with 10 μM BA, mT, oMeOBAP or mMeOBAP (compound no. 14 and 15, respectively). The control medium didn't contain any cytokinin. After a culture period of 8 weeks, the number of induced shoots per explant was determined, as well as root number/explant and total root length/explant. The roots were removed and the explants (shoot clusters) were planted in unfertilised peat. After four weeks of acclimatising in a fog unit, root number and root length was determined.

HOS = experiment: Calcein AM cytotoxicity, HOS; type: cell-based; settings: Homo sapiens, HOS, 72 h
Excerpt: One of the parameters used, as the basis for cytotoxicity assays, is the metabolic activity of viable cells. For example, a microtiter assay, which uses the Calcein AM, is now widely used to quantitate cell proliferation and cytotoxicity. For instance, this assay is used in drug screening programs and in chemosensitivity testing. Because only metabolically active cells cleave Calcein AM, these assays detect viable cells exclusively. The quantity of reduced Calcein AM corresponds to the number of vital cells in the culture.
Human T-lymphoblastic leukemia cell line CEM; promyelocytic HL-60 and monocytic U937 leukemias; breast carcinoma cell lines MCF-7, BT549, MDA-MB-231; glioblastoma U87MG cells; cervical carcinoma cells HELA; sarcoma cells U2OS and Saos2; hepatocellular carcinoma HepG2; mouse fibroblasts NIH3T3; mouse immortalized bone marrow macrophages B2.4 and B10A.4; P388D1 and L1210 leukemia; B16 and B16F10 melanomas were used for routine screening of compounds. The cells were maintained in Nunc/Corning 80 cm^2 plastic tissue culture flasks and cultured in cell culture medium (DMEM with 5 g/l glucose, 2 mM glutamine, 100 U/ml penicillin, 100 μg/ml streptomycin, 10% fetal calf serum and sodium bicarbonate).
The cell suspensions that were prepared and diluted according to the particular cell type and the expected target cell density (2.500-30.000 cells per well based on cell growth characteristics) were added by pipette (80 μl) into 96/well microtiter plates. Inoculates were allowed a pre-incubation period of 24 hours at 37° C. and 5% CO2 for stabilisation. Four-fold dilutions of the intended test concentration were added at time zero in 20 μl aliquots to the microtiter plate wells. Usually, test compound was evaluated at six 4-fold dilutions. In routine testing, the highest well concentration was […], but it can be the matter of change dependent on the agent. All drug concentrations were examined in duplicates. Incubations of cells with the test compounds lasted for 72 hours at 37° C., in 5% CO2 atmosphere and 100% humidity. At the end of incubation period, the cells were assayed by using the Calcein AM. Ten microliters of the stock solution were pipetted into each well and incubated further for 1 hours. Fluorescence (FD) was measured with the Labsystem FIA Reader Fluoroscan Ascent (UK). The tumour cell survival (GI50) was calculated using the following equitation: TCS═(FDdrug exposed well/mean FDcontrol wells)×100%. The GI50 value, the drug concentration lethal to 50% of the tumour cells, was calculated from the obtained dose response curves (FIG. 1).

[4] = Ex vitro, four weeks of acclimatising

Nc1cc(Nc2ncnc3nc[nH]c23)ccc1Cl [3-amino-4-chloroanilino, 6-(3-amino-4-chloroanilino)purine]
EC50 (Human lymphocytes): 8.3 µM
SENESCENT CELLS (%) HCA25 [1]: 4%
SENESCENT CELLS (%) HCA45 [1]: 6%
SENESCENT CELLS (%) HCA80 [1]: 22%

Nc1ccc(Nc2ncnc3nc[nH]c23)cc1Cl [3-chloro-4-aminoanilino, 6-(3-chloro-4-aminoanilino)purine]
EC50 (Human lymphocytes): 12 µM
SENESCENT CELLS (%) HCA25 [1]: 5%
SENESCENT CELLS (%) HCA45 [1]: 5%
SENESCENT CELLS (%) HCA80 [1]: 24%

Nc1cc(Cl)cc(Nc2ncnc3nc[nH]c23)c1 [3-chloro-5-aminoanilino, 6-(3-chloro-5-aminoanilino)purine]
EC50 (Human lymphocytes): 12.4 µM
SENESCENT CELLS (%) HCA25 [1]: 3%
SENESCENT CELLS (%) HCA45 [1]: 6%
SENESCENT CELLS (%) HCA80 [1]: 24%

Clc1cccc(Nc2ncnc3nc[nH]c23)c1 [3-chloroanilino, 6-(3-chloroanilino)purine]
EC50 (Human lymphocytes): 7.2 µM
SENESCENT CELLS (%) HCA25 [1]: 4%
SENESCENT CELLS (%) HCA45 [1]: 5%
SENESCENT CELLS (%) HCA80 [1]: 25%

Brc1ccc(Nc2ncnc3nc[nH]c23)cc1 [4-bromoanilino, 6-(4-bromoanilino)purine]
EC50 (Human lymphocytes): 4.7 µM
SENESCENT CELLS (%) HCA25 [1]: 5%
SENESCENT CELLS (%) HCA45 [1]: 3%
SENESCENT CELLS (%) HCA80 [1]: 25%

Clc1ccc(Nc2ncnc3nc[nH]c23)cc1 [4-chloroanilino, 6-(4-chloroanilino)purine]
EC50 (Human lymphocytes): 6.2 µM
SENESCENT CELLS (%) HCA25 [1]: 5%
SENESCENT CELLS (%) HCA45 [1]: 5%
SENESCENT CELLS (%) HCA80 [1]: 26%

c1ccc(CNc2ncnc3nc[nH]c23)cc1 [BAP, 6-benzylaminopurine, reference compound]
relative number of dead plants in relation to culture time [2]: looks like a sigmoid curve
shoot multiplication and rooting, in words ([3]; 10 μM): high shoot multiplication rate, but the shoots rooted badly
Root number per plant [3, 4]: 0.6
Total root length per plant [3, 4]: 1.1 cm
Flower number per explant ([3]; In vitro, 10 μM, 8 weeks): 0.00
Number of new shoots per explant ([3]; In vitro, 10 μM, 8 weeks): 3.8
Root number per explant ([3]; In vitro, 10 μM, 8 weeks): 0.0
Total root length per explant ([3]; In vitro, 10 μM, 8 weeks): 0.0 cm
IC50 (HOS): > 167 µM
